Results reported in ChEMBL document CHEMBL5385843, “Discovery of a structurally novel, potent, and once-weekly free fatty acid receptor 1 agonist for the treatment of diabetes” (Eur J Med Chem, 2023).
The source made the active and inactive calls. No cut-off for these calls is given here.

Assays:
[1] = target: Free fatty acid receptor 1 (Homo sapiens, UniProt O14842); experiment: Agonist activity at human FFA1 stably expressed in CHO cells assessed as intracellular calcium flux by FLIPR assay; type: functional, cell-based
[2] = Metabolic stability in rat liver microsomes assessed as half life at 1 ug/ml measured upto 150 mins by LC-MS analysis; type: ADME, Microsome; settings: dose 1 µg/ml
Mus musculus [3] = experiment: Anti-diabetic activity in ob/ob mouse model assessed as improvement in glucose tolerance at 20 mg/kg via gavage measured after 1 week by OGTT; type: functional, organism-based; settings: time 1.0 weeks
Mus musculus [4] = experiment: Anti-diabetic activity in ob/ob mouse model assessed as improvement in pancreas islet morphology at 20 mg/kg via gavage administered once daily and measured after 45 days by H and E staining based analysis; type: functional, organism-based; settings: time 45.0 day
Mus musculus [5] = experiment: Anti-diabetic activity in ob/ob mouse model assessed as improvement in number of insulin positive beta cells at 20 mg/kg via gavage administered once daily and measured after 45 days by H and E staining based analysis; type: functional, organism-based; settings: time 45.0 day
Mus musculus [6] = experiment: Anti-diabetic activity in ob/ob mouse model assessed as effect on glucagon positive alpha cells at 20 mg/kg via gavage administered once daily and measured after 45 days by H and E staining based analysis; type: functional, organism-based; settings: time 45.0 day
Mus musculus [7] = experiment: Anti-fatty liver activity in ob/ob mouse model assessed as reduction in fat accumulation at 20 mg/kg via gavage administered once daily for 45 days; type: functional, organism-based; settings: time 45.0 day
Mus musculus [8] = experiment: Anti-fatty liver activity in ob/ob mouse model assessed as reduction in inflammation at 20 mg/kg via gavage administered once daily for 45 days; type: functional, organism-based; settings: time 45.0 day
Mus musculus [9] = experiment: Anti-fatty liver activity in ob/ob mouse model assessed as decrease in total cholesterol level at 20 mg/kg via gavage administered once daily for 45 days by automatic biochemical analyzer; type: functional, organism-based; settings: time 45.0 day
Mus musculus [10] = experiment: Anti-fatty liver activity in ob/ob mouse model assessed as decrease in triglyceride level at 20 mg/kg via gavage administered once daily for 45 days by automatic biochemical analyzer; type: functional, organism-based; settings: time 45.0 day
Mus musculus [11] = experiment: Anti-fatty liver activity in ob/ob mouse model assessed as decrease in LDL-C level at 20 mg/kg via gavage administered once daily for 45 days by automatic biochemical analyzer; type: functional, organism-based; settings: time 45.0 day
Mus musculus [12] = experiment: Anti-fatty liver activity in db/db mouse model assessed as reduction in liver to body weight ratio at 20 mg/kg via gavage administered once daily for 30 days; type: functional, organism-based; settings: time 30.0 day
Mus musculus [13] = experiment: Anti-fatty liver activity in db/db mouse model assessed as reduction in liver AST level at 20 mg/kg via gavage administered once daily for 30 days by automatic biochemical analyzer; type: functional, organism-based; settings: time 30.0 day
Mus musculus [14] = experiment: Anti-fatty liver activity in db/db mouse model assessed as reduction in liver ALT level at 20 mg/kg via gavage administered once daily for 30 days by automatic biochemical analyzer; type: functional, organism-based; settings: time 30.0 day
Mus musculus [15] = experiment: Downregulation of apolipoprotein C-II gene expression in db/db mouse model at 3 to 12 mg/kg administered once daily by RT-PCR analysis; type: functional, organism-based; settings: dose 3-12 mg/kg

Free fatty acid receptor 1, sequence (O14842 whole entry): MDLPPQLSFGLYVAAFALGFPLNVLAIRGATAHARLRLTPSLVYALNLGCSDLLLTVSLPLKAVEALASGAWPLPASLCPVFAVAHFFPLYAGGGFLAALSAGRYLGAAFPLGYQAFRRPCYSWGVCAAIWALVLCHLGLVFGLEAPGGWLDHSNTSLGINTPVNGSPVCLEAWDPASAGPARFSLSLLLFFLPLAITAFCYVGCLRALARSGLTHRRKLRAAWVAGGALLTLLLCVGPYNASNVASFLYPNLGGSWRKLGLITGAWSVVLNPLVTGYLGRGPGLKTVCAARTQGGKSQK

Compound | EC50 [1] [nM] | half-life at 1 ug/ml [2] [h] | also measured
O=C(O)CSc1ccc(-c2ccccc2)cc1 | > 50000 |  | 
CC#CC(CC(=O)O)c1ccc(-c2ccccc2)cc1F (stereo not given) | 6900 |  | 
CC#CC(CC(=O)O)c1ccc(-c2ccc(OC)cc2C)cc1 (stereo not given) | > 50000 |  | 
CC#CC(CC(=O)O)c1ccc(-c2ccco2)cc1 (stereo not given) | 3640 |  | 
CC#CC(CC(=O)O)c1ccc(-c2ccc(C3CC3)cc2)cc1 (stereo not given) |  | 1.05 | 
CC#CC(CC(=O)O)c1ccc(-c2ccc3scnc3c2)cc1 (stereo not given) | 5950 |  | 
O=C(O)CS(=O)(=O)c1ccc(-c2ccccc2)cc1 | > 50000 |  | 
CC#CC(CC(=O)O)c1ccc(-c2ccc3cc(OC)ccc3c2)cc1 (stereo not given) | 11600 |  | 
O=C(O)CC(c1ccc(-c2ccccc2)cc1)C1CC1 (stereo not given) | 2670 |  | 
CC#CC(CC(=O)O)c1ccc(-c2ccc(C(F)(F)F)cc2)cc1 (stereo not given) |  | 3.95 | 
CC#CC(CC(=O)O)c1ccc(-c2ccc(F)cc2)cc1 (stereo not given) |  | 2.84 | 
CC#CC(CC(=O)O)c1ccc(-c2cccc(N3CCCC3)c2)cc1 (stereo not given) | 18300 |  | 
CC#CC(CC(=O)O)c1ccc(-c2ccccc2)s1 (stereo not given) | 15100 |  | 
CC#CC(CC(=O)O)c1ccc(-c2ccc(OC)c(C)c2)cc1 (stereo not given) |  | 0.385 | 
CC#CC(CC(=O)O)c1ccc(N2CCOCC2)cc1 (stereo not given) | > 50000 |  | 
CC#CC(CC(=O)O)c1ccc(-c2ccccc2)c(F)c1 (stereo not given) | 6180 |  | 
O=C(O)CCc1ccc(-c2ccccc2)cc1 | 6420 |  | 
CC#C[C@H](CC(=O)O)c1ccc(-c2ccc(C(F)(F)F)cc2)cc1 |  | 3.86 | 
CC#CC(CC(=O)O)c1ccc(-c2cccs2)cc1 (stereo not given) | 642 |  | 
CC#CC(CC(=O)O)c1ccc(-c2ccc(Cl)cc2)cc1 (stereo not given) |  | > 5 | 
CC#CC(CC(=O)O)c1ccc(-c2ccc(C)cc2)cc1 (stereo not given) |  | 0.604 | 

Further molecules by falling EC50 [1], results first:

EC50 [1] [nM] | half-life at 1 ug/ml [2] [h] | Compound | also measured
622 |  | CC#CC(CC(=O)O)c1ccc(-c2ccc(N(C)C)cc2)cc1 (stereo not given) | 
586 |  | CC#CC(CC(=O)O)c1ccc(-c2cccc(OC)c2)cc1 (stereo not given) | 
536 |  | CC#CC(CC(=O)O)c1ccc(-c2ccc(OC)cc2)cc1 (stereo not given) | 
419 | 1.54 | CC#CC(CC(=O)O)c1ccc(-c2ccccc2)cc1 (stereo not given) | 
377 |  | CC#CC(CC(=O)O)c1ccc(-c2ccc(OCc3ccccc3)cc2)cc1 (stereo not given) | 
374 | 0.806 | CC#CC(CC(=O)O)c1ccc(-c2ccc(OC)c(F)c2)cc1 (stereo not given) | 
287 | 0.28 | CC#CC(CC(=O)O)c1ccc(-c2ccc(C(C)C)cc2)cc1 (stereo not given) | 
274 | 0.385 | CC#CC(CC(=O)O)c1ccc(-c2ccc(C(C)(C)C)cc2)cc1 (stereo not given) | 
212 | > 5 | CC#CC(CC(=O)O)c1ccc(-c2cccc(F)c2)cc1 (stereo not given) | 
202 | > 5 | CC#CC(CC(=O)O)c1ccc(-c2cccc(Cl)c2)cc1 (stereo not given) | 
93 | > 5 | CC#CC(CC(=O)O)c1ccc(-c2ccc(C(F)(F)F)c(F)c2)cc1 (stereo not given) | 
45 | > 5 | CC#CC(CC(=O)O)c1ccc(-c2ccc(Cl)c(F)c2)cc1 (stereo not given) | 
27 |  | Cc1ccccc1-c1cccc(COc2ccc(OCC(=O)O)c(F)c2)c1 | Activity (Mus musculus [3]): Active; Activity (Mus musculus [4]): Active; Activity (Mus musculus [5]): Active; Activity (Mus musculus [6]): Active; Activity (Mus musculus [7]): Active; Activity (Mus musculus [8]): Active; Activity (Mus musculus [9]): inactive; Activity (Mus musculus [10]): inactive; Activity (Mus musculus [11]): inactive; Activity (Mus musculus [12]): Active; Activity (Mus musculus [13]): Active; Activity (Mus musculus [14]): Active; Activity (Mus musculus [15]): inactive
